Key:
[1] = molecular target: T1, GST-RIPK2 fusion protein (human RIPK2, amino acids 1-310) (Homo sapiens, UniProt O43353); assay: RIPK2 binding competition assay (TR-FRET, Tracer 199 displacement); conditions: 10 nM Tracer 199, 1 nM GST-RIPK2, read-out: RIPK2 IC50
T1 construct: made in house; host or cells: baculovirus infected Sf9 cells
Excerpt: The ability of selected compounds of Formula (I) to inhibit the binding of an Alexa647-labelled ATP-competitive kinase inhibitor to a GST-RIPK2 fusion protein was quantified employing the TR-FRET-based RIPK2 binding competition assay as described in the following paragraphs.
Recombinant fusion protein of N-terminal Glutathione-S-Transferase (GST) and a fragment of human RIPK2 (amino acids 1-310 of accession number 043353), expressed in baculovirus infected Sf9 cells, purified via glutathione affinity chromatography, was used as GST-RIPK2 fusion protein. Tracer 199 from Life Technologies (catalogue no. PR9115B) was used as Alexa647-labelled ATP-competitive kinase inhibitor.
For the assay, 50 nL of a 100-fold concentrated solution of each test compound in DMSO was pipetted into either a black low volume 384-well microtiter plate or a black 1536-well microtiter plate (both Greiner Bio-One, Frickenhausen, Germany), 3 μL solution of Tracer 199 (16.7 nM=>final concentration in 5 μL assay volume is 10 nM) in aqueous assay buffer (25 mM Tris/HCl pH 7.5, 10 mM magnesium chloride (MgCl2), 5 mM β-glycerophosphate, 2.5 mM dithiothreitol (DTT), 0.5 mM ethylene glycol-bis(2-aminoethylether)-N,N,N′,N′-tetraacetic acid (EGTA), 0.5 mM sodium ortho-vanadate, 0.01% (w/v) bovine serum albumin (BSA), 0.005% (w/v) Pluronic F-127 (Sigma)) were added. Then the binding competition was started by the addition of 2 μL of a solution of the GST-RIPK2 fusion protein (2.5 nM=>final conc. in the 5 μL assay volume is 1 nM) and of Anti-GST-Tb (1.25 nM=>final conc. in the 5 μL assay volume is 0.5 nM), a Lumi4®—Tb cryptate-conjugated anti-GST antibody from PerkinElmer (catalogue no 61GSTTAH), in assay buffer.
The resulting mixture was incubated 45 min at 22° C. to allow the formation of a complex between the Tracer 199, the fusion protein and Anti-GST-Tb. Subsequently, the amount of this complex was evaluated by measurement of the resonance energy transfer from the Tb-cryptate to the Tracer 199. Therefore, the fluorescence emissions at 620 nm and 665 nm after excitation at 337 nm were measured in a TR-FRET reader, e.g. a Pherastar FS (BMG Labtechnologies, Offenburg, Germany) or a Viewlux (PerkinElmer). The ratio of the emissions at 665 nm and at 620 nm was taken as the measure of the amount of the complex. The data were normalized (assay reaction without inhibitor=0% activity, all other assay components but no GST-RIPK2 fusion protein=−100% activity).
Table A1 below lists IC50 values of selected compounds of Formula (I) measured in the RIPK2 binding competition assay.

[2] = molecular target: T2, binding of His-XIAP(BIR2)-avi fusion protein to GST-RIPK2 fusion protein (RIPK2/XIAP) (Homo sapiens, UniProt O43353); assay: RIPK2-XIAP binding competition PPI assay (TR-FRET); conditions: RIPK2/XIAP binding competition PPI assay; for Emax: Amax, read-out: PPI Amax bin; for IC50: read-out: PPI IC50 bin
T2 construct: made in house; host or cells: baculovirus infected Sf9 cells
Excerpt: The ability of selected compounds of Formula (I) to inhibit the binding of an His-XIAP(BIR2)-avi fusion protein to a GST-RIPK2 fusion protein was quantified employing the TR-FRET-based competition assay as described in the following paragraphs.
Recombinant fusion protein of N-terminal Glutathione-S-Transferase (GST) and a fragment of human RIPK2 (amino acids 1-310 of accession number 043353), expressed in baculovirus infected Sf9 cells, purified via glutathione affinity chromatography, was used as GST-RIPK2 fusion protein. Recombinant fusion protein of N-terminal 6×Histidine (His), a fragment of human XIAP (amino acids 152-231 of accession number P98170), and C-terminal avi tag, expressed in baculovirus infected Sf9 cells, purified via Nickel NTA affinity chromatography, was used as the His-XIAP(BIR2)-avi fusion protein.
For the assay, a working solution of 1 nM GST-RIPK2, 25 nM His-XIAP(BIR2)-avi, 6 nM Anti-His-XL665 […] (Revvity Catalogue No. 61HISXLB), and 0.5 nM Anti-GST-Tb (Revvity Catalogue No. 61GSTTLB) in 25 mM Tris-HCl 7.5, 0.5 mM ethylene glycol-bis(2-aminoethylether)-N,N,N′,N′-tetraacetic acid (EGTA), 10 mM magnesium chloride (MgCl2), 2.5 mM dithiothreitol (DTT), 0.01% (w/v) bovine serum albumin (BSA), 0.005% (w/v) Pluronic F-127 (Sigma), 0.5 mM sodium ortho-vanadate, 5 mM β-Glycerophosphate disodium salt hydrate (BGP) was prepared. 50 nL of a 100-fold concentrated solution of each test compound in DMSO was dispensed via acoustic dispensing into a white low volume 384-well microtiter plate (Perkin Elmer Catalogue No. 6008280). Subsequently, 5 μL of the assay working solution were added.
The resulting mixture was incubated 120 min at 23° C. Subsequently, the amount of complex formed by the GST-RIPK2, XIAP(BIR2)-avi, Anti-His-XL665, and Anti-GST-Tb was evaluated by measurement of the resonance energy transfer from the Tb-cryptate to the XL665. Therefore, the fluorescence emissions at 520 nm and 665 nm after excitation at 337 nm were measured in a TR-FRET reader, e.g. a Pherastar FS (BMG Labtechnologies, Offenburg, Germany) or an Envision (PerkinElmer). The ratio of the emissions at 665 nm and at 520 nm was taken as the measure of the amount of the complex. The data were normalized (assay reaction without inhibitor=0% activity, 50 nM of GSK583=−100% activity).
For the RIPK2/XIAP binding competition PPI assay Amax values, “A” denotes an Amax of ≥80%; “B” denotes an Amax of 80%>B≥55; “C” denotes an Amax of 55%>C>30; and “D” denotes an Amax of ≤30%.

[3] = test system: NF-κB pathway (SEAP) in THP1-Dual cells; assay: THP-1 Dual cell SEAP assay (L18-MDP stimulated); type: cell-based; conditions: Homo sapiens, THP1-Dual, read-out: NF-κB THP1 IC50 bin
Method: THP1-Dual™ cells (InvivoGen Cat #thpd-nfis) allow simultaneous assessment of the NF-κB pathway, by monitoring the activity of secreted embryonic alkaline phosphatase (SEAP) as well as the IRF pathway, by assessing the activity of a secreted luciferase (Lucia). Cells were cultured according to manufacturers' recommendations. For the assay, cell concentration was adjusted to 7.14×10^5 cells/mL in assay media (RPMI 1640, 2 mM L-Glutamine, 25 mM HEPES, 10% fetal bovine serum (heat-inactivated for 30 min at 56° C.), Pen-Strep (100 U/mL)) and 35 µL of cell suspension (˜25,000 cells) per well were added to a flat bottom 384-well plate (white opaque). Plate was centrifuged at 300 g for 2 min, compounds were added in serial dilution series according to the plate layout (volumes ˜500 nL-0.0152 nL) and plate was incubated at 37° C. in 5% CO2 for 30 min. Using assay media, a L18-MDP stock solution, that results in a final concentration of 10 ng/mL L18-MDP in each well when adding 15 μL to each well, was prepared. 15 μL of L18-MDP stock solution was added to each well, while 15 μL of assay media was added to the negative control wells. Plates were subsequently incubated at 37° C. in 5% CO2 overnight (20-24 h).
For the SEAP assay: without disturbing the cells at the bottom of the well, 15 μL supernatant was transferred to a clear 384-well flat bottom plate and 35 μL QUANTI-Blue Solution per well was added. Following a 2 h incubation at 37° C., the optical density (OD) was measured at 620-655 nm using a microplate reader (PheraStar FS microplate reader with protocol for OD 620-655 nm).
Values of media-only wells were subtracted and % inhibition for each compound concentration relative to the DMSO/L18-MDP-treated controls was calculated. Inhibition values+/−SD were fitted by non-linear regression using Prism software (GraphPad PRISM Software) to calculate IC50 values.

T2 sequence (O43353 1-310 limits assumed): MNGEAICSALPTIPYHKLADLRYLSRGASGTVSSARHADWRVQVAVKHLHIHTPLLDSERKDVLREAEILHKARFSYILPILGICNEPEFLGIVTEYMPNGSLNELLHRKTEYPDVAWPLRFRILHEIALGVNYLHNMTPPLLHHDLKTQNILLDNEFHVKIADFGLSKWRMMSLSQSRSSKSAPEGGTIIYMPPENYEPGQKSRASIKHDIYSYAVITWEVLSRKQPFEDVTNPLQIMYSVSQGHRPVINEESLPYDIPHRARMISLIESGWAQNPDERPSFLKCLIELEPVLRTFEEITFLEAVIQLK
T1 sequence (O43353 1-310): as the sequence (O43353 1-310 limits assumed) above

| SMILES | IC50 [1] [nM] | Emax [2] [%] | IC50 [2] [nM] | IC50 [3] [nM] |
| --- | --- | --- | --- | --- |
| Nc1cc(-c2cnn3ccc(C(F)(F)F)cc23)cc(F)n1 [Example 3, 6-fluoro-4-(5-(trifluoromethyl)pyrazolo[1,5-a]pyridin-3-yl)pyridin-2-amine] | > 20 | < 30 | > 20 | 250 to 1000 |
| COc1cc2ncc(-c3cc(F)c(OC)c(NS(=O)(=O)C4CCC4)c3)n2cc1S(=O)(=O)C(C)(C)C [Example 145, N-(5-(6-(tert-butylsulfonyl)-7-methoxyimidazo[1,2-a]pyridin-3-yl)-3-fluoro-2-methoxyphenyl)cyclobutanesulfonamide] | < 1 | > 80 | < 1 | < 50 |
| CC(C)(C)S(=O)(=O)c1cn2c(-c3cc(F)c(N)nc3F)cnc2cc1CO [Example 39, (3-(6-amino-2,5-difluoropyridin-3-yl)-6-(tert-butylsulfonyl)imidazo[1,2-a]pyridin-7-yl)methanol] | > 20 | > 80 | > 20 | > 1000 |
| COc1cc2ncc(-c3cc(F)c(OC)c(NS(=O)(=O)CC4CC4)c3)n2cc1S(=O)(=O)C(C)(C)C [Example 159, N-(5-(6-(tert-butylsulfonyl)-7-methoxyimidazo[1,2-a]pyridin-3-yl)-3-fluoro-2-methoxyphenyl)-1-cyclopropylmethanesulfonamide] | < 1 | > 80 | < 1 | < 50 |
| CCCS(=O)(=O)Nc1cc(-c2cnn3cc(OC)c(S(=O)(=O)C(C)(C)CO)cc23)cc(F)c1OC [Example 132] | < 1 | > 80 | < 1 | < 50 |
| COCCn1cc(-c2cc3ncc(-c4cc(F)c(N)nc4F)n3cc2S(=O)(=O)C(C)(C)C)cn1 [Example 23, 5-(6-(tert-butylsulfonyl)-7-(1-(2-methoxyethyl)-1H-pyrazol-4-yl)imidazo[1,2-a]pyridin-3-yl)-3,6-difluoropyridin-2-amine] | 2.5 to 20 | > 80 | 2.5 to 20 | 250 to 1000 |
| Cn1ccc(-c2cc3ncc(-c4cc(F)c(N)nc4F)n3cc2S(=O)(=O)C(C)(C)C)n1 [Example 27, 5-(6-(tert-butylsulfonyl)-7-(1-methyl-1H-pyrazol-3-yl)imidazo[1,2-a]pyridin-3-yl)-3,6-difluoropyridin-2-amine] | > 20 | > 80 | > 20 | > 1000 |
| COc1cc2ncc(-c3cccc(NS(=O)(=O)C4CCOCC4)c3)n2cc1S(=O)(=O)C(C)(C)C [Example 147, N-(3-(6-(tert-butylsulfonyl)-7-methoxyimidazo[1,2-a]pyridin-3-yl)phenyl)tetrahydro-2H-pyran-4-sulfonamide] | 2.5 to 20 | > 80 | 2.5 to 20 | 250 to 1000 |
| COc1cc2ncc(-c3ccc4c(N)noc4c3)n2cc1S(=O)(=O)C(C)(C)C [Example 93, 6-(6-(tert-butylsulfonyl)-7-methoxyimidazo[1,2-a]pyridin-3-yl)benzo[d]isoxazol-3-amine] | 2.5 to 20 | < 30 | > 20 | 250 to 1000 |
| COc1cc2nc(Cl)c(-c3ccc(N)nc3F)n2cc1S(=O)(=O)C(C)(C)C [Example 10, 5-(6-(tert-butylsulfonyl)-2-chloro-7-methoxyimidazo[1,2-a]pyridin-3-yl)-6-fluoropyridin-2-amine] | > 20 | > 80 | > 20 | – |
| CC(C)(C)C(C)(O)c1cn2c(-c3cc(F)c(N)nc3F)cnc2cc1OCCO (centres unmarked) [Example 193, 2-(3-(6-amino-2,5-difluoropyridin-3-yl)-7-(2-hydroxyethoxy)imidazo[1,2-a]pyridin-6-yl)-3,3-dimethylbutan-2-ol] | 2.5 to 20 | > 80 | – | – |
| COc1c(F)cc(-c2cnc3cc(Cl)c(S(=O)(=O)C(C)(C)C)cn23)cc1NS(=O)(=O)c1cnn(C)c1 [Example 263, N-(5-(6-(tert-butylsulfonyl)-7-chloroimidazo[1,2-a]pyridin-3-yl)-3-fluoro-2-methoxyphenyl)-1-methyl-1H-pyrazole-4-sulfonamide] | – | > 80 | < 1 | < 50 |
| CC(C)(C)S(=O)(=O)c1cn2c(-c3cc(F)c(N)nc3F)cnc2cc1NCCO [Example 272, 2-((3-(6-amino-2,5-difluoropyridin-3-yl)-6-(tert-butylsulfonyl)imidazo [1,2-a]pyridin-7-yl)amino)ethan-1-ol] | – | > 80 | 1 to 2.5 | 50 to 250 |

Reference: US20260137706A1, “METHODS OF TREATING INFLAMMATORY DISEASES” (INTERLINE THERAPEUTICS, INC., priority 2023, published 2026)
